Experimental data taken from patent US6541619B1 (Daewoong Pharmaceutical Co., Ltd., priority 1997, dated 2003).

Experiments:
CHO-K1 cells = assay: Cytotoxicity to CHO-K1 cells that do not express hEGF receptors (MTT); format: cell-based; conditions: CHO-K1, serum-free media, 2 days
Procedure: Cells were cultured on 96 well plates at 1×10^4 cells/ml for 1 day, and received serum-free media containing control and samples, and incubated for additional 2 days. Survival rate of the cells was measured with MTT, in an analogous manner as in Example 15(see: Table 4).

MCF-7 = assay: Cytotoxicity to breast cancer cells in vitro (MTT); format: cell-based, human; conditions: MCF-7, serum-free media, 2 days
Procedure: In order to evaluate activity of the fusion protein in vitro, breast cancer cell line, MCF-7(ATCC-HTB22), was cultured in DMEM supplemented with 10% FBS. Cells were plated on 96-well plates at 1×10^4 cells/ml and cultured for 1 day. Medium was replaced with serum free-media containing control, sample, and 5-fluorouracil(for comparison) and cultured for 2 days, survival rate was measured with MTT(3-([…]-2-yl)-2,5-diphenyltetrazolium bromide), and IC50 was calculated(see: Table 3).

A431 tumor = assay: Anticancer effect in vivo, A431 tumor transplanted in nude mouse
Procedure: To evaluate anticancer activity of the fusion protein in vivo, A431 cultured cells were transferred subcutaneously to the abdominal region of an immunodeficient nude mouse(20-25 g body weight) at 2×10^7 in 0.2 ml. When the proper size of tumor was formed, tumor was removed from the mouse under sterilization condition and cut into pieces of 2-3 mm to be transferred subcutaneously with a troca. When the size of the transplanted tumor of the nude mouse reached […], mice were divided into 5 groups(6 mice in one group) for i.v. injection. 100 μg/kg body weight of the fusion protein and angiogenin were administered by i.v. injection every 3 day for 4 weeks. After final administration, the area of the tumor-surface was measured by vernier calipers.
The tumor cells were excised after 4 weeks and measured for the weight(see: Table 5).

yeast t-RNA = assay: RNase activity on yeast t-RNA (OD 260 nm); format: biochemical; conditions: relative to angiogenin; 37° C., 2 hours
Procedure: 50 μl of sample containing a fusion protein was mixed with 50 μl of yeast t-RNA mixture containing reaction buffer composed of 120 mM HEPES, 120 mM NaCl, 0.004% BSA and incubated at 37° C. for 2 hours. Reaction was interrupted by an equal volume of 6% perchloric acid. Subsequently, the reaction mixture was centrifuged for 10 minutes and used to measure optical density at 260 nm from which the standard curve was made to measure RNase activity. Activities of the samples were compared with that of angiogenin(see: Table 2).

Compound	IC50 (CHO-K1 cells; Cricetulus griseus, 48 h) [nM]	IC50 (MCF-7) [nM]	IC50 (CHO-K1 cells) [nM]	Mean tumor-surface B (after 4 weeks) (A431 tumor; 100 μg/kg i.v. every 3 day for 4 weeks, after 4 weeks) [mm^2]	Mean tumor-surface A (on the day of administration) (A431 tumor; 100 μg/kg i.v. every 3 day for 4 weeks, day of administration) [mm^2]	Mean tumor-surface B/A (A431 tumor; ratio of surface after 4 weeks to day of administration)	Mean tumor weight (A431 tumor; tumor excised after 4 weeks, 100 μg/kg i.v. every 3 day) [g]	RNase Activity(%) (yeast t-RNA)
O=c1[nH]cc(F)c(=O)[nH]1 [5-fluorouracil, reference compound]	49.5							
Angiogenin: human angiogenin, 14.4 kD protein consisting of 123 amino acids, ribonuclease superfamily, SEQ ID No:2		> 100	> 100	477.2 ± 6.7	79.3 ± 2.1	6.0	5.0 ± 0.7	100%
hEGF-angiogenin: fusion protein of EGF-angiogenin expressed from pTE4083, SEQ ID No:19								65-90%
